Reference: patent publication US20240124434A1, “ATF6 INHIBITORS AND USES THEREOF” (Altos Labs, Inc., priority 2018, published 2024)
≈ marks a conversion by molar mass, not a printed value.

Key:
[1] = test system: ATF6; assay: ERSE ATF6-luciferase reporter assay (thapsigargin-induced ER stress); type: cell-based, human; conditions: Homo sapiens, U2OS, thapsigargin-induced ER stress, U2-OS ATF6 luc reporter cells; for inhibition at 1 µM: 8 h, read-out: Inh. ATF6-Luc @ 1 μM [%], 1 μM test compound, 8 hr; for IC50: read-out: IC50 ATF6-Luc reporter [μM], dose-response 30 μM to 1 nM
[2] = In vitro microsomal stability, human liver microsomes; type: in vitro ADME; conditions: for microsomal CLint at […], 1 µM: intrinsic clearance, read-out: Clint @ hLM; for Rem. @ hLM (%): remaining fraction after 30 min, 1 μM compound, 0.5 mg/mL human liver microsomes, 1 mM NADPH
Protocol: (§1) Compounds were incubated at a final concentration of 1 μM with 0.5 mg/mL human liver microsomes (hLM) (#HMMCPL; Thermo), mouse liver microsomes (mLM) (#MSMCPL; Thermo) or rat liver microsomes (rLM) (#RTMCPL; Thermo) and 1 mM reduced dihydronicotinamide-adenine dinucleotide phosphate (NADPH) (#N1630; Sigma) in 100 mM phosphate buffer (pH 7.4) at 37° C. The reactions were terminated at 0, 5, 15 and 30 min by the addition of cold acetonitrile containing 50 ng/mL propranolol as an internal standard. […] Verapamil hydrochloride (#V4369 Aldrich) was used as a positive control in all studies.

[3] = In vitro microsomal stability, mouse liver microsomes; type: in vitro ADME; conditions: for half-life at […], 1 µM / half-life at 1 μM: mouse, read-out: T1/2 @ mLM; for half-life at […], 1 µM / microsomal CLint at […], 1 µM / half-life at 1 μM: mouse liver microsomes, pH 7.4; for microsomal CLint at […], 1 µM: intrinsic clearance, read-out: Clint @ mLM; for Rem. @ mLM (%): remaining fraction after 30 min, 1 μM compound, 0.5 mg/mL mouse liver microsomes, 1 mM NADPH
Protocol: as §1

[4] = In vitro microsomal stability, rat liver microsomes; type: in vitro ADME; conditions: for microsomal CLint at […], 1 µM / half-life at […], 1 µM / half-life at 1 μM: pH 7.4, rat liver microsomes; for microsomal CLint at […], 1 µM: intrinsic clearance, read-out: Clint @ rLM; for half-life at […], 1 µM / half-life at 1 μM: rat, read-out: T1/2 @ rLM; for Rem. @ rLM (%): remaining fraction after 30 min, 1 μM compound, 0.5 mg/mL rat liver microsomes, 1 mM NADPH
Protocol: as §1

[5] = Kinetic solubility (nephelometry); type: physicochemical; conditions: aqueous buffer, kinetic from dmso stock; PBS pH 7.4, 1% DMSO, 1 hour at 37° C., light scattering at 625 nm
Protocol: Concentration (μM) was then calculated by segmental regression. Amiodarone (#A8423 Aldrich) was used as positive control.

[6] = biological target: CYP2B6 (Homo sapiens (Human), UniProt P20813); assay: CYP inhibition in human liver microsomes; conditions: read-out: CYP-2B6; human liver microsomes; probe substrate bupropion
CYP2B6, sequence (P20813 whole entry, canonical isoform): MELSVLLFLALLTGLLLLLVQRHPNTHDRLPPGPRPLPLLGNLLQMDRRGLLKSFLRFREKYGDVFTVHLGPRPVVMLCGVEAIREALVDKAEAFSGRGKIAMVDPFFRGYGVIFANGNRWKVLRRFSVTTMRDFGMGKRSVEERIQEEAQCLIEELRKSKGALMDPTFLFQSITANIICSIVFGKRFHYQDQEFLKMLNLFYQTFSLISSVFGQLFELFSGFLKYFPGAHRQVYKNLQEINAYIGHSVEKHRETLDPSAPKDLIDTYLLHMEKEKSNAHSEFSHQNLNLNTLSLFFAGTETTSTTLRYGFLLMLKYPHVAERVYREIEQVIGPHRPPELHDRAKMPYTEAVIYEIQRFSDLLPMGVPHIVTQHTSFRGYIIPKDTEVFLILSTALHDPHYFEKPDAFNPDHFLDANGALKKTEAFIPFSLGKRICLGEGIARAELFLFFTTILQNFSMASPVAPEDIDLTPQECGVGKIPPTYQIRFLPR
Protocol: (§2) CYP inhibition by test compounds in human liver microsomes (HLM) for seven major CYP450 isoforms CYP1A2, CYP2C9, CYP2D6, CYP2B6, CYP2C8, CYP2C19 and CYP3A4 were assessed. […] 50 μM phenacetin, 2 μM midazolam, 5 μM diclofenac, 50 μM mephenytoin, 80 μM bupropion, and 5 μM dextromethorphan were used as probe substrates of CYP1A2, CYP3A4, CYP2C9, CYP2C19, CYP2B6, and CYP2D6, respectively. The incubation times were 20 min for […], CYP2D6, CYP2C9, CYP2B6, and CYP2C8; 40 min for CYP2C19; and 10 min for CYP 3A4. Following incubations, the reactions were terminated with acetonitrile containing internal standard. The samples were centrifuged and the supernatants were analyzed for the formation of metabolites (1-hydroxymidazolam (CYP3A4), 4-hydroxydiclofenac (CYP2C9), 4-hydroxymephenytoin (CYP2C19) and dextrorphan (CYP2D6), hydroxybupropion (CYP2B6), acetaminophen (CYP1A2), desethylamodiaquine (CYP2C8)) by LC/MS/MS.

[7] = biological target: CYP2C19 (Homo sapiens (Human), UniProt P33261); assay: CYP inhibition in human liver microsomes; conditions: read-out: CYP-2C19; human liver microsomes; probe substrate mephenytoin
CYP2C19, sequence (P33261 whole entry): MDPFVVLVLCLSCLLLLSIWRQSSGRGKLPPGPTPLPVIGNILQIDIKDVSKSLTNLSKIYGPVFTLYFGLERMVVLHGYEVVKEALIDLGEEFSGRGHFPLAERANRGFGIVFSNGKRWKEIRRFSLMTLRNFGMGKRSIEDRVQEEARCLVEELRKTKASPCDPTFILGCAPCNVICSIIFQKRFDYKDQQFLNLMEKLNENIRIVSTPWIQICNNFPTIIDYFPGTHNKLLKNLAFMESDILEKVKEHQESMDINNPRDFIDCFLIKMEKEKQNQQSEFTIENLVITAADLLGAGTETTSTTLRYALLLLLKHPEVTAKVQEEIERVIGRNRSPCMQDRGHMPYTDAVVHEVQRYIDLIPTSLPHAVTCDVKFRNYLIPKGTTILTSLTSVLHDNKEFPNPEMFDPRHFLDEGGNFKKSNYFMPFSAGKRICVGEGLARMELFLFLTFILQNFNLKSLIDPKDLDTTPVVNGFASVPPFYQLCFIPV
Protocol: as §2

[8] = biological target: CYP2C8 (Homo sapiens (Human), UniProt P10632); assay: CYP inhibition in human liver microsomes; conditions: read-out: CYP-2C8, metabolite desethylamodiaquine
CYP2C8, sequence (P10632 whole entry): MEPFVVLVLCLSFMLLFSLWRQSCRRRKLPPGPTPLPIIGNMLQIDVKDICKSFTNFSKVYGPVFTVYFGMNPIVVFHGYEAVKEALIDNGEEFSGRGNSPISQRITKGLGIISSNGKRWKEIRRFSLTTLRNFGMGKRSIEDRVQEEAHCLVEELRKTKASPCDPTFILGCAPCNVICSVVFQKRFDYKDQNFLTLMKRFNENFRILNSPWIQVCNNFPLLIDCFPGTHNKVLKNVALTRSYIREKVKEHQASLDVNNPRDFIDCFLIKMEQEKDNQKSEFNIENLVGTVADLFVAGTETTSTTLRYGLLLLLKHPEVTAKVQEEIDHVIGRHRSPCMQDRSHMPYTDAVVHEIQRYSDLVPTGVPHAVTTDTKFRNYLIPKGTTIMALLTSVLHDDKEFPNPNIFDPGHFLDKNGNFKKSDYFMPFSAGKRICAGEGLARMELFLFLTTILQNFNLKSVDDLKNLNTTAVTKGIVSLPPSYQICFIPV
Protocol: as §2

[9] = biological target: CYP2C9 (Homo sapiens (Human), UniProt P11712); assay: CYP inhibition in human liver microsomes; conditions: read-out: CYP-2C9; human liver microsomes; probe substrate diclofenac
CYP2C9, sequence (P11712 whole entry): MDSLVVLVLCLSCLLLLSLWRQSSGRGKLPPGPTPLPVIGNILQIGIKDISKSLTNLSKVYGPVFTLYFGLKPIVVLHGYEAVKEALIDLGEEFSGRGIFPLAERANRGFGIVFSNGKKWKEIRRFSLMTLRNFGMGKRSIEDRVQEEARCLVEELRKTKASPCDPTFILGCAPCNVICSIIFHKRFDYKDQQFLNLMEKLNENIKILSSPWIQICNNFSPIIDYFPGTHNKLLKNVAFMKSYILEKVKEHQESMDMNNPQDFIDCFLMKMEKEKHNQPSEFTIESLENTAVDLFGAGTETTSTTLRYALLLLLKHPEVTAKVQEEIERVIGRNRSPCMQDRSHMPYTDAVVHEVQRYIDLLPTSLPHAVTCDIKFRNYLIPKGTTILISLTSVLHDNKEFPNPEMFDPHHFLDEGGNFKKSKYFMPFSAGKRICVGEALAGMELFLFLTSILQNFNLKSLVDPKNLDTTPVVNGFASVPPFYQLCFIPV
Protocol: as §2

[10] = biological target: CYP2D6 (Homo sapiens (Human), UniProt P10635); assay: CYP inhibition in human liver microsomes; conditions: read-out: CYP-2D6; human liver microsomes; probe substrate dextromethorphan
CYP2D6, sequence (P10635 whole entry): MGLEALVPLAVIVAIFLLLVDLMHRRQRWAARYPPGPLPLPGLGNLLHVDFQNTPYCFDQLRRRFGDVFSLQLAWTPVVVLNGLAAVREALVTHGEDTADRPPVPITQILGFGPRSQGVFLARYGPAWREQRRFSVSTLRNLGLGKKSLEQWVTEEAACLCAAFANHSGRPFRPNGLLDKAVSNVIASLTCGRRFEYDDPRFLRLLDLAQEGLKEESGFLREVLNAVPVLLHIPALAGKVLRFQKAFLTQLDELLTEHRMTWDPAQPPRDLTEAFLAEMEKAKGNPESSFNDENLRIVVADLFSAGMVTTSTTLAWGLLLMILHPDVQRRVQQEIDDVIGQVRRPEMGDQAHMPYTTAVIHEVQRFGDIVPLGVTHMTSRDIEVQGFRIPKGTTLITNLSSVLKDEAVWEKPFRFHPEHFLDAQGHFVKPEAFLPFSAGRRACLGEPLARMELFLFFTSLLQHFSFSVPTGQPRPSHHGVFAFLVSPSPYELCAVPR
Protocol: as §2

[11] = biological target: CYP3A4 (Homo sapiens (Human), UniProt P08684); assay: CYP inhibition in human liver microsomes; conditions: read-out: CYP-3A4; human liver microsomes; probe substrate midazolam
CYP3A4, sequence (P08684 whole entry): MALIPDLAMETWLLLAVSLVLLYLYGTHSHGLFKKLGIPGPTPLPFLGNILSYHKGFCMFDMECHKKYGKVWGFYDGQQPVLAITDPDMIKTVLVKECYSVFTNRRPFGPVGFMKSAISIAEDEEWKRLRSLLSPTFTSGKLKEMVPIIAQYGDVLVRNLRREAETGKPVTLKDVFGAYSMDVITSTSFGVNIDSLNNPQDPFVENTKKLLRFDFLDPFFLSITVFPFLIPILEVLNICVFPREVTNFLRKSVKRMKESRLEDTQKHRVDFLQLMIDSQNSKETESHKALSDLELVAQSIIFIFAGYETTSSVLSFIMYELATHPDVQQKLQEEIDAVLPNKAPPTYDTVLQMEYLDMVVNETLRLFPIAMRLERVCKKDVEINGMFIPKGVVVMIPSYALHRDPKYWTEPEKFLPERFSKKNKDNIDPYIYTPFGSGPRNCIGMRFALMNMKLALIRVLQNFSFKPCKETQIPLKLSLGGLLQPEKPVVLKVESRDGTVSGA
Protocol: as §2

[12] = mouse, in vivo, po, 10 mg/kg; for AUCExtr [%] / F [%] / Vz: Balb/c
Protocol: (§3) Tested compounds were formulated at 1 mg/mL as a dosing solution for oral administration in vehicle A: 10% dimethylacetamide (DMAC), 20% propylene glycol, and 40% PEG-400 or vehicle B: 10% Kolliphor® EL and 10% ethanol (EtOH).
(§4) Animals were acclimated for a minimum period of 4 days upon arrival at the testing facility.
(§5) At the day of study, mice were weighed, identified by marking the tail with numbers using a non-toxic permanent marker, and designated into ten experimental groups (n=3 per group).
(§6) Non-dosed mice were used to collect samples of zero time points. […] Blood samples were centrifuged immediately at 9,000 g at 4° C. for 5 minutes and then plasmas were separated. Plasma samples were placed into individually labeled cryovials and stored in a −80° C. freezer until LC/MS/MS bioanalysis.
(§7) The bioanalysis of plasma samples was conducted with a QTRAP 4500 triple quadrupole mass spectrometer (Applied Biosystems SCIEX) in the positive ion mode and interfaced with an Ekspert Ultra LC100 UPLC System (Eksigent). Calibration standards (0.01 to 10 μM) and QCs (0.02, 0.2 and 2.0 μM) were prepared from naïve mouse plasma in parallel with mouse plasma study samples (60 μL) by precipitation with three volumes of ice cold internal standard solution (acetonitrile containing 20 μM of theophylline). The precipitated samples were centrifuged at 6,100 g for 30 min. Following centrifugation, an aliquot of each supernatant was transferred to an autosampler plate and diluted with two volumes of aqueous mobile phase (0.1% formic acid in water). Samples were injected onto a reverse phase analytical column (YMC Triart C18; 2.0×50 mm; 1.9 μm; YMC CO) and eluted with a gradient of 0.1% formic acid in Acetonitrile. Assayed test compound and internal standards were monitored by a multiple reaction monitoring (MRM) experiment using an Analyst software (v1.6.2, Applied Biosystems SCIEX). Quantitation was conducted using a MultiQuant software (v2.1, Applied Biosystems SCIEX) and the resulting calibration curve was fitted with a linear regression and 1/x weighting. The lower limits of quantitation were 1<LLQ <5 ng/mL.

[13] = in vivo; conditions: Balb/c, mouse, po, 10 mg/kg
Protocol: as §3, §4, §5, §6, §7

[14] = human, human liver microsomes, pH 7.4, read-out: T1/2 @ hLM

Row | SMILES | inhibition at 1 µM [1] [%] | IC50 [1] [µM] | half-life at […], 1 µM [2, 14] [h] | microsomal CLint at […], 1 µM ([2]; pH 7.4, human liver microsomes) [µL/min/mg] | Rem. @ hLM (%) [2] [%] | half-life at […], 1 µM [3] [h] | microsomal CLint at […], 1 µM [3] [µL/min/mg] | Rem. @ mLM (%) [3] [%] | microsomal CLint at […], 1 µM [4] [µL/min/mg] | Rem. @ rLM (%) [4] [%] | solubility kinetic at 1 h [5] [µM] | IC50 [6] [µM] | IC50 [7] [µM] | IC50 [8] [µM] | IC50 [9] [µM] | IC50 [10] [µM] | IC50 [11] [µM] | AUCExtr [%] [12] [%] | F [%] [12] [%] | Vz [12] [L/kg] | also measured
1 | C[C@H](c1ccc(C(F)(F)F)cc1C(F)(F)F)n1cc(NC(=O)c2cc(-c3ccccn3)no2)cn1 [Compound 76, (R)—N-(1-(1-(2,4-bis(trifluoromethyl)phenyl)ethyl)-1H-pyrazol-4-yl)-3-(pyridin-2-yl)isoxazole-5-carboxamide] | > 50 | < 1 | 0.96 | 24.1 | 69.7 | 1.2 | 19.3 | 74.9 | 34.7 | 59.4 | 7.03 (≈ 3.48 µg/mL) | 6.45 | 3.6 | 1.14 | 6 | 7.54 | > 50 | 2.55 | 50.6 | 1.45 | half-life at […], 1 µM [4]: 0.665 h; Last time point for AUClast [12]: 24 h; AUC(0-inf) [13]: 45300 ng·h/mL; AUC(0-t) [13]: 44100 ng·h/mL; Cmax [13]: 5180 ng/mL; Tmax [13]: 1 h; half-life [13]: 4.54 h
2 | O=C(Nc1cnn(Cc2ccc(C(F)(F)F)cc2C(F)(F)F)c1)c1cc(-c2cnccn2)on1 [Compound 114, N-(1-(2,4-bis(trifluoromethyl)benzyl)-1H-pyrazol-4-yl)-5-(pyrazin-2-yl)isoxazole-3-carboxamide] | > 50 | < 1 | 3.55 | 6.5 | 90.4 | 2.75 | 8.4 | 86.8 | 25 | 69.7 | 1.17 (≈ 0.564 µg/mL) | > 50 | > 50 | > 50 | > 50 | > 50 | > 50 | 14 | 43.3 | 10.5 | half-life at […], 1 µM [4]: 0.923 h; Last time point for AUClast [12]: 24 h; AUC(0-inf) [13]: 11900 ng·h/mL; AUC(0-t) [13]: 10300 ng·h/mL; Cmax [13]: 899 ng/mL; Tmax [13]: 0.5 h; half-life [13]: 8.66 h
3 | C[C@H](c1ccc(C(F)(F)F)cc1C(F)(F)F)n1cc(NC(=O)c2nnc(-c3ccccn3)s2)cn1 [Compound 123, (R)—N-(1-(1-(2,4-bis(trifluoromethyl)phenyl)ethyl)-1H-pyrazol-4-yl)-5-(pyridin-2-yl)-1,3,4-thiadiazole-2-carboxamide] | > 50 | < 1 | 7.67 | 3 | 95.5 | 3.22 | 7.2 | 89.7 | 10.7 | 81.5 | 1.17 (≈ 0.6 µg/mL) | 42.9 | > 50 | 33.3 | 31.9 | > 50 | > 50 | 37.7 | 64.1 | 4.43 | half-life at […], 1 µM [4]: 2.17 h; Last time point for AUClast [12]: 24 h; AUC(0-inf) [13]: 62200 ng·h/mL; AUC(0-t) [13]: 38800 ng·h/mL; Cmax [13]: 4560 ng/mL; Tmax [13]: 1 h; half-life [13]: 19.1 h
4 | Cc1nn([C@H](C)c2ccc(C(F)(F)F)cc2C(F)(F)F)cc1NC(=O)c1cc(-c2ccccn2)on1 [Compound 99, (R)—N-(1-(1-(2,4-bis(trifluoromethyl)phenyl)ethyl)-3-methyl-1H-pyrazol-4-yl)-5-(pyridin-2-yl)isoxazole-3-carboxamide] | 25 to 50 | 1 to 10 | – | 39.2 | 49.2 | 0.272 | 85.2 | 29.2 | 28.3 | 60.9 | 2.34 (≈ 1.19 µg/mL) | 4.8 | 8.8 | 1 | 2.5 | 32 | > 50 | – | – | – | half-life at 1 μM [2, 14]: 0.59 h; half-life at 1 μM [4]: 0.817 h
5 | O=C(Nc1cnn(Cc2ccc(C(F)(F)F)cc2C(F)(F)F)c1)c1cc(-c2ccccn2)on1 [Compound 11, N-(1-(2,4-bis(trifluoromethyl)benzyl)-1H-pyrazol-4-yl)-5-(pyridin-2-yl)isoxazole-3-carboxamide] | > 50 | < 1 | 1.12 | 21 | 73.5 | – | 55 | 40.8 | 44 | 44.8 | 9.41 (≈ 4.53 µg/mL) | 16.9 | 9.85 | 1.09 | 7.77 | > 50 | > 50 | 5.07 | 48.6 | 8.74 | half-life at 1 μM [3]: 0.422 h; half-life at 1 μM [4]: 0.522 h; Last time point for AUClast [12]: 24 h; AUC(0-inf) [13]: 10300 ng·h/mL; AUC(0-t) [13]: 9780 ng·h/mL; Cmax [13]: 2270 ng/mL; Tmax [13]: 0.25 h; half-life [13]: 6.24 h
6 | Cc1c(NC(=O)c2cc(-c3ccco3)on2)cnn1Cc1ccc(C(F)(F)F)cc1C(F)(F)F [Compound 93, N-(1-(2,4-bis(trifluoromethyl)benzyl)-5-methyl-1H-pyrazol-4-yl)-5-(furan-2-yl)isoxazole-3-carboxamide] | > 50 | < 1 | 1.27 | 18.2 | 74.1 | – | 34.7 | 51.1 | 20.2 | 69.8 | 2.92 (≈ 1.41 µg/mL) | > 50 | > 50 | > 50 | > 50 | > 50 | > 50 | – | – | – | half-life at 1 μM [3]: 0.667 h; half-life at 1 μM [4]: 1.15 h
